Assay results as given in ChEMBL document CHEMBL1201862, “PubChem BioAssay data set” (2004).
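These data come from cells grown in 96-well plates and exposed to compound for 48 hours at five concentrations. GI50 marks 50% less growth.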 The source made the active and inactive calls. No stated cut-off is given here; in the data, active = GI50 up to about 1.1 µM and inactive = higher.

What was measured:
Assay in all cases: NCI anticancer screen, dose series, 48 h
[1] = system: NCI-H460
[2] = system: HCT-15
[3] = system: HT-29
[4] = system: HOP-92
[5] = system: NCI-H226
[6] = system: SNB-75
[7] = system: T47D
[8] = system: K562
[9] = system: SN12C
[10] = system: OVCAR-5
[11] = system: TK-10
[12] = system: DU-145
[13] = system: 786-0
[14] = system: COLO 205
[15] = system: U-251
[16] = system: ACHN
[17] = system: SK-OV-3
[18] = system: UO-31
[19] = system: MDA-N
[20] = system: Malme-3M

SMILES: Cn1c2ccccc2c(=S)c2ccccc21
- GI50 [1]: > 100 µM (inactive)
- GI50 [2]: > 100 µM
- GI50 [3]: > 100 µM (inactive)
- GI50 [4]: > 100 µM (inactive)
- GI50 [5]: > 100 µM (inactive)
- GI50 [6]: > 100 µM (inactive)
- GI50 [7]: > 100 µM (inactive)
- GI50 [8]: > 100 µM (inactive)
- GI50 [9]: > 100 µM (inactive)
- GI50 [10]: > 100 µM (inactive)
- GI50 [11]: > 100 µM (inactive)
- GI50 [12]: > 100 µM (inactive)
- GI50 [13]: > 100 µM (inactive)
- GI50 [14]: > 100 µM (inactive)
- GI50 [15]: > 100 µM (inactive)
- GI50 [16]: > 100 µM (inactive)
- GI50 [17]: > 100 µM (inactive)
- GI50 [18]: > 100 µM (inactive)
- GI50 [19]: > 100 µM (inactive)

SMILES: CCCCCCCCCCCC(=O)Oc1c(Cl)cc(Cl)c(OC(=O)C(=O)Oc2c(Cl)cc(Cl)c(OC(=O)CCCCCCCCCCC)c2Cl)c1Cl
- GI50 [1]: > 100 µM (inactive)
- GI50 [3]: > 100 µM (inactive)
- GI50 [4]: > 100 µM (inactive)
- GI50 [6]: > 100 µM (inactive)
- GI50 [7]: > 100 µM (inactive)
- GI50 [20]: > 100 µM (inactive)
- GI50 [9]: > 100 µM (inactive)
- GI50 [10]: > 100 µM (inactive)
- GI50 [11]: > 100 µM (inactive)
- GI50 [12]: > 100 µM (inactive)
- GI50 [13]: > 100 µM (inactive)
- GI50 [14]: > 100 µM (inactive)
- GI50 [15]: > 100 µM (inactive)
- GI50 [16]: > 100 µM (inactive)
- GI50 [17]: > 100 µM (inactive)
- GI50 [18]: > 100 µM (inactive)
- GI50 [19]: > 100 µM (inactive)

SMILES: Cc1nnc(CC#N)n1NC(=O)CC#N
- GI50 [1]: > 100 µM (inactive)
- GI50 [2]: > 100 µM
- GI50 [3]: > 100 µM (inactive)
- GI50 [4]: > 100 µM (inactive)
- GI50 [6]: > 100 µM (inactive)
- GI50 [7]: > 100 µM (inactive)
- GI50 [8]: > 100 µM (inactive)
- GI50 [20]: > 100 µM (inactive)
- GI50 [9]: > 100 µM (inactive)
- GI50 [10]: > 100 µM (inactive)
- GI50 [11]: > 100 µM (inactive)
- GI50 [12]: > 100 µM (inactive)
- GI50 [13]: > 100 µM (inactive)
- GI50 [14]: > 100 µM (inactive)
- GI50 [15]: > 100 µM (inactive)
- GI50 [16]: > 100 µM (inactive)
- GI50 [17]: > 100 µM (inactive)
- GI50 [18]: > 100 µM (inactive)
- GI50 [19]: > 100 µM (inactive)

SMILES: CCCCOCOc1ccccc1P1(=O)COc2ccccc2OC1
- GI50 [1]: 58.3 µM (inactive)
- GI50 [2]: 87.1 µM
- GI50 [3]: > 100 µM (inactive)
- GI50 [4]: 74.1 µM (inactive)
- GI50 [6]: > 100 µM (inactive)
- GI50 [7]: 45.4 µM (inactive)
- GI50 [8]: 52.2 µM (inactive)
- GI50 [20]: > 100 µM (inactive)
- GI50 [9]: > 100 µM (inactive)
- GI50 [10]: > 100 µM (inactive)
- GI50 [11]: 20.8 µM (inactive)
- GI50 [12]: > 100 µM (inactive)
- GI50 [13]: > 100 µM (inactive)
- GI50 [14]: 63 µM (inactive)
- GI50 [15]: > 100 µM (inactive)
- GI50 [16]: 86.7 µM (inactive)
- GI50 [17]: > 100 µM (inactive)
- GI50 [18]: 38.7 µM (inactive)
- GI50 [19]: > 100 µM (inactive)

SMILES: Cc1c(NC(=O)CCl)c(=O)oc2c(C)c3occc(=O)c3cc12
- GI50 [1]: 10.7 µM (inactive)
- GI50 [2]: > 10 µM
- GI50 [3]: 14.9 µM (inactive)
- GI50 [4]: 14.2 µM (inactive)
- GI50 [6]: 2.39 µM (inactive)
- GI50 [7]: 14 µM (inactive)
- GI50 [8]: 10.1 µM (inactive)
- GI50 [20]: 21.1 µM (inactive)
- GI50 [10]: 18.5 µM (inactive)
- GI50 [11]: 14.5 µM (inactive)
- GI50 [12]: 23.7 µM (inactive)
- GI50 [13]: 13.9 µM (inactive)
- GI50 [14]: 14.3 µM (inactive)
- GI50 [15]: 14.4 µM (inactive)
- GI50 [16]: 16.6 µM (inactive)
- GI50 [17]: 18.2 µM (inactive)
- GI50 [18]: 10.5 µM (inactive)
- GI50 [19]: 16.1 µM (inactive)
